In US20240116985A1, “STAPLED PEPTIDES AND METHODS THEREOF” (priority 2020, published 2024):

Assays:
[1] = target: T1, full-length beta-Catenin (Uniprot ID P35222) (Homo sapiens, UniProt P35222); test: Fluorescence polarization IC50 (beta-catenin / 5FAM-TCF4 10-53 competition); type: binding; conditions: fluorescence polarization; read-out: beta-Catenin FP IC50
T1 construct: 10 nM full-length beta-Catenin (Uniprot ID P35222)
T1 sequence (P35222 1-781): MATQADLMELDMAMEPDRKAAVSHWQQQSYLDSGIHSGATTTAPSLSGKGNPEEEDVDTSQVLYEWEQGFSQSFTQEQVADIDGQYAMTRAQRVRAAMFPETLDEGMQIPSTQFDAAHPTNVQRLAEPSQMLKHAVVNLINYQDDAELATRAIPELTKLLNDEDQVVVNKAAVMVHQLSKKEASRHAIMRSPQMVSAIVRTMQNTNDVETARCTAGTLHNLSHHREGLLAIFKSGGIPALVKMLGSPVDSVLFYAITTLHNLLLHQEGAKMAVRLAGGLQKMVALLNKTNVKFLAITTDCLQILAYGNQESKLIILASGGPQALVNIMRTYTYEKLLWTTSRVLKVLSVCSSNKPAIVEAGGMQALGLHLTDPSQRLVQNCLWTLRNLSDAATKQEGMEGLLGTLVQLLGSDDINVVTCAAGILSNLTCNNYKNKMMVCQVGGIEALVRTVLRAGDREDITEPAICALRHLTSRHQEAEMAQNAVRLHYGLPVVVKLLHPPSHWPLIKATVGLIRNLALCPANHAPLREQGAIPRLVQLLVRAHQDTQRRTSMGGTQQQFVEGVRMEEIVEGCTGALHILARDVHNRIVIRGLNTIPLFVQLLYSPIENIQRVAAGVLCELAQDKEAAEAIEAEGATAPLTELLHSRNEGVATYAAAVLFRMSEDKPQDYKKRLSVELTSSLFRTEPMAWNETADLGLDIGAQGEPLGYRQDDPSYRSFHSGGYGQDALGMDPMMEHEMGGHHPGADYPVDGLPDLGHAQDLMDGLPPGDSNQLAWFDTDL

[2] = target: T2, beta-catenin/TCF4 engagement (Homo sapiens, UniProt P35222); test: Nano-BRET target engagement assay (B-cat-Halo & TCF4-Luc in HEK293 cells); type: cell-based; conditions: read-out: NanoBRET Abs IC50
T2 construct: expressed in transfected cells; host or cells: HEK293
T2 sequence (P35222 1-781): T1 sequence (P35222 1-781)

Structure (SMILES) | IC50 [1] [nM] | IC50 [2] [nM]
CC(=O)N1CCC[C@]12CC=CCCCC1(CCCC=CCCCOC(=O)N3CC[C@@](C(=O)N[C@@H](Cc4ccccc4)C(=O)N[C@@H](Cc4csc5ccccc45)C(=O)N[C@@H](CC(N)=O)C(N)=O)(C3)NC(=O)[C@H](CC(N)=O)NC(=O)[C@H](Cc3ccccc3)NC(=O)[C@H](C)NC(=O)[C@H](CCCCNC(C)C)NC(=O)[C@H](CCC(N)=O)NC(=O)[C@H](CC(=O)O)NC1=O)NC(=O)[C@H](CC1CCCCC1)NC(=O)[C@H](CC(N)=O)NC2=O (stereo partly drawn) [I-2111, Ac-PL3-Asn-Cha-B5-Asp-Gln-iPrLys-Ala-Phe-Asn-PyrS2-Phe-BztA-Asn-NH2] | 180 | > 20000
CC(=O)N1CCC[C@]12CC=CCCCC1(CCCC=CCCCOC(=O)N3CC[C@@](C(=O)N[C@@H](Cc4ccsc4)C(=O)N[C@@H](Cc4csc5ccccc45)C(=O)N[C@@H](CCC(N)=O)C(N)=O)(C3)NC(=O)[C@H](CC(N)=O)NC(=O)[C@H](Cc3cccc(C(=O)O)c3)NC(=O)[C@H](C)NC(=O)[C@H](C)NC(=O)[C@H](CCc3ccc(O)cc3)NC(=O)[C@H](CC(=O)O)NC1=O)NC(=O)[C@H](CC(C)(C)C)NC(=O)[C@H](CC(=O)O)NC2=O (stereo partly drawn) [I-2114, Ac-PL3-Asp-Npg-B5-Asp-hTyr-Ala-Ala-3COOHF-Asn-PyrS2-3Thi-BztA-Gln-NH2] | 32 | > 20000
CC(=O)N1CCC[C@]12CC=CCCCC1(CCCC=CCCCOC(=O)N3CC[C@@](C(=O)N[C@@H](Cc4ccsc4)C(=O)N[C@@H](Cc4csc5ccccc45)C(=O)N[C@@H](CCC(N)=O)C(N)=O)(C3)NC(=O)[C@H](CC(N)=O)NC(=O)[C@H](Cc3cccc(C(=O)O)c3)NC(=O)[C@H](C)NC(=O)[C@H](C)NC(=O)[C@H](CCc3ccc(O)cc3)NC(=O)[C@H](CC(=O)O)NC1=O)NC(=O)[C@H](CC(C)(C)C)NC(=O)[C@H](CC(=O)O)NC2=O (stereo partly drawn) [I-2115, Ac-PL3-Asp-Npg-B5-Asp-hTyr-Ala-Ala-3COOHF-Asn-PyrS2-3Thi-BztA-Gln-NH2] | 29 | > 20000
CC(=O)N1CCC[C@]12CC=CCCCC1(CCCC=CCCCOC(=O)N3CC[C@@](C(=O)N[C@@H](Cc4ccsc4)C(=O)N[C@@H](Cc4csc5ccccc45)C(=O)N[C@@H](CCC(N)=O)C(N)=O)(C3)NC(=O)[C@H](CCO)NC(=O)[C@H](Cc3cccc(C(=O)O)c3)NC(=O)[C@H](C)NC(=O)[C@H](C)NC(=O)[C@H](CCc3ccc(O)cc3)NC(=O)[C@H](CC(=O)O)NC1=O)NC(=O)[C@H](CC(C)(C)C)NC(=O)[C@H](CC(=O)O)NC2=O (stereo partly drawn) [I-2116, Ac-PL3-Asp-Npg-B5-Asp-hTyr-Ala-Ala-3COOHF-Hse-PyrS2-3Thi-BztA-Gln-NH2] | 19 | 33400
CC(=O)N1CCC[C@]12CC=CCCCC1(CCCC=CCCCOC(=O)N3CC[C@@](C(=O)N[C@@H](Cc4ccsc4)C(=O)N[C@@H](Cc4csc5ccccc45)C(=O)N[C@@H](CCC(N)=O)C(N)=O)(C3)NC(=O)[C@H](CCO)NC(=O)[C@H](Cc3cccc(C(=O)O)c3)NC(=O)[C@H](C)NC(=O)[C@H](C)NC(=O)[C@H](CCc3ccc(O)cc3)NC(=O)[C@H](CC(=O)O)NC1=O)NC(=O)[C@H](CC(C)(C)C)NC(=O)[C@H](CC(=O)O)NC2=O (stereo partly drawn) [I-2117, Ac-PL3-Asp-Npg-B5-Asp-hTyr-Ala-Ala-3COOHF-Hse-PyrS2-3Thi-BztA-Gln-NH2] | 19 | > 20000
CC(=O)N1CCC[C@]12CC=CCCCC1(CCCC=CCCCOC(=O)N3CC[C@@](C(=O)N[C@@H](Cc4ccsc4)C(=O)N[C@@H](Cc4csc5ccccc45)C(=O)N[C@@H](CCC(N)=O)C(N)=O)(C3)NC(=O)[C@H](CC(N)=O)NC(=O)[C@H](Cc3cccc(C(=O)O)c3)NC(=O)[C@H](C)NC(=O)[C@H](C)NC(=O)[C@H](Cc3c[nH]cn3)NC(=O)[C@H](CC(=O)O)NC1=O)NC(=O)[C@H](CC(C)(C)C)NC(=O)[C@H](CC(=O)O)NC2=O (stereo partly drawn) [I-2118, Ac-PL3-Asp-Npg-B5-Asp-His-Ala-Ala-3COOHF-Asn-PyrS2-3Thi-BztA-Gln-NH2] | 21 | > 20000
CC(=O)N1CCC[C@]12CC=CCCCC1(CCCC=CCCCOC(=O)N3CC[C@@](C(=O)N[C@@H](Cc4ccsc4)C(=O)N[C@@H](Cc4csc5ccccc45)C(=O)N[C@@H](CCC(N)=O)C(N)=O)(C3)NC(=O)[C@H](CC(N)=O)NC(=O)[C@H](Cc3cccc(C(=O)O)c3)NC(=O)[C@H](C)NC(=O)[C@H](C)NC(=O)[C@H](Cc3c[nH]cn3)NC(=O)[C@H](CC(=O)O)NC1=O)NC(=O)[C@H](CC(C)(C)C)NC(=O)[C@H](CC(=O)O)NC2=O (stereo partly drawn) [I-2119, Ac-PL3-Asp-Npg-B5-Asp-His-Ala-Ala-3COOHF-Asn-PyrS2-3Thi-BztA-Gln-NH2] | 29 | > 20000
CC(=O)N1CCC[C@]12CC=CCCCC1(CCCC=CCCCOC(=O)N3CC[C@@](C(=O)N[C@@H](Cc4ccsc4)C(=O)N[C@@H](Cc4csc5ccccc45)C(=O)N[C@@H](CCC(N)=O)C(N)=O)(C3)NC(=O)[C@H](CCO)NC(=O)[C@H](Cc3cccc(C(=O)O)c3)NC(=O)[C@H](C)NC(=O)[C@H](C)NC(=O)[C@H](Cc3c[nH]cn3)NC(=O)[C@H](CC(=O)O)NC1=O)NC(=O)[C@H](CC(C)(C)C)NC(=O)[C@H](CC(=O)O)NC2=O (stereo partly drawn) [I-2120, Ac-PL3-Asp-Npg-B5-Asp-His-Ala-Ala-3COOHF-Hse-PyrS2-3Thi-BztA-Gln-NH2] | 11 | 37200
CC(=O)N1CCC[C@]12CC=CCCCC1(CCCC=CCCCOC(=O)N3CC[C@@](C(=O)N[C@@H](Cc4ccsc4)C(=O)N[C@@H](Cc4csc5ccccc45)C(=O)N[C@@H](CCC(N)=O)C(N)=O)(C3)NC(=O)[C@H](CCO)NC(=O)[C@H](Cc3cccc(C(=O)O)c3)NC(=O)[C@H](C)NC(=O)[C@H](C)NC(=O)[C@H](Cc3c[nH]cn3)NC(=O)[C@H](CC(=O)O)NC1=O)NC(=O)[C@H](CC(C)(C)C)NC(=O)[C@H](CC(=O)O)NC2=O (stereo partly drawn) [I-2121, Ac-PL3-Asp-Npg-B5-Asp-His-Ala-Ala-3COOHF-Hse-PyrS2-3Thi-BztA-Gln-NH2] | 12 | > 20000
CC(=O)N1CCC[C@]12CC=CCCCC1(CCCC=CCCCOC(=O)N3CC[C@@](C(=O)N[C@@H](Cc4ccsc4)C(=O)N[C@@H](Cc4csc5ccccc45)C(=O)N[C@@H](CCC(N)=O)C(N)=O)(C3)NC(=O)[C@H](CC(C)C)NC(=O)[C@H](Cc3cccc(C(=O)O)c3)NC(=O)[C@H](C)NC(=O)[C@H](C)NC(=O)[C@H](Cc3c[nH]cn3)NC(=O)[C@H](CC(=O)O)NC1=O)NC(=O)[C@H](CC(C)(C)C)NC(=O)[C@H](CC(=O)O)NC2=O (stereo partly drawn) [I-2122, Ac-PL3-Asp-Npg-B5-Asp-His-Ala-Ala-3COOHF-Leu-PyrS2-3Thi-BztA-Gln-NH2] | 12 | 34400
CC(=O)N1CCC[C@]12CC=CCCCC1(CCCC=CCCCOC(=O)N3CC[C@@](C(=O)N[C@@H](Cc4ccsc4)C(=O)N[C@@H](Cc4csc5ccccc45)C(=O)N[C@@H](CCC(N)=O)C(N)=O)(C3)NC(=O)[C@H](CC(C)C)NC(=O)[C@H](Cc3cccc(C(=O)O)c3)NC(=O)[C@H](C)NC(=O)[C@H](C)NC(=O)[C@H](Cc3c[nH]cn3)NC(=O)[C@H](CC(=O)O)NC1=O)NC(=O)[C@H](CC(C)(C)C)NC(=O)[C@H](CC(=O)O)NC2=O (stereo partly drawn) [I-2123, Ac-PL3-Asp-Npg-B5-Asp-His-Ala-Ala-3COOHF-Leu-PyrS2-3Thi-BztA-Gln-NH2] | 12 | 26900
CC(=O)N1CCC[C@]12CC=CCCCC1(CCCC=CCCCOC(=O)N3CC[C@@](C(=O)N[C@@H](Cc4ccsc4)C(=O)N[C@@H](Cc4csc5ccccc45)C(=O)N[C@@H](CCC(N)=O)C(N)=O)(C3)NC(=O)[C@H](CC(C)C)NC(=O)[C@H](Cc3cccc(C(=O)O)c3)NC(=O)[C@H](C)NC(=O)[C@H](C)NC(=O)[C@H](Cc3ccc(O)cc3)NC(=O)[C@H](CC(=O)O)NC1=O)NC(=O)[C@H](CC(C)(C)C)NC(=O)[C@H](CC(=O)O)NC2=O (stereo partly drawn) [I-2126, Ac-PL3-Asp-Npg-B5-Asp-Tyr-Ala-Ala-3COOHF-Leu-PyrS2-3Thi-BztA-Gln-NH2] | 68 | 29500
CC(=O)N1CCC[C@]12CC=CCCCC1(CCCC=CCCCOC(=O)N3CC[C@@](C(=O)N[C@@H](Cc4ccsc4)C(=O)N[C@@H](Cc4csc5ccccc45)C(=O)N[C@@H](CCC(N)=O)C(N)=O)(C3)NC(=O)[C@H](CCO)NC(=O)[C@H](Cc3cccc(C(=O)O)c3)NC(=O)[C@H](C)NC(=O)[C@H](C)NC(=O)[C@H](Cc3c[nH]c4ccccc34)NC(=O)[C@H](CC(=O)O)NC1=O)NC(=O)[C@H](CC(C)(C)C)NC(=O)[C@H](CC(=O)O)NC2=O (stereo partly drawn) [I-2128, Ac-PL3-Asp-Npg-B5-Asp-Trp-Ala-Ala-3COOHF-Hse-PyrS2-3Thi-BztA-Gln-NH2] | 29 | 27000
CC(=O)N1CCC[C@]12CC=CCCCC1(CCCC=CCCCOC(=O)N3CC[C@@](C(=O)N[C@@H](Cc4ccsc4)C(=O)N[C@@H](Cc4csc5ccccc45)C(=O)N[C@@H](C)C(N)=O)(C3)NC(=O)[C@H](CC(N)=O)NC(=O)[C@H](Cc3ccccc3)NC(=O)[C@H](C)NC(=O)[C@H](C)NC(=O)[C@H]([C@@H](C)O)NC(=O)[C@H](CC(N)=O)NC1=O)NC(=O)[C@H](CC(C)(C)C)NC(=O)[C@H](CC(=O)O)NC2=O (stereo partly drawn) [I-2142, Ac-PL3-Asp-Npg-B5-Asn-Thr-Ala-Ala-Phe-Asn-PyrS2-3Thi-BztA-Ala-NH2] | 271 | > 20000
